Source: patent US20190208782A1, “PROCESSING COMPOSITION FOR C[…] WEEDS” (Arch Chemicals, Inc., priority 2018, published 2019)
Values after ≈ are worked out from the molar mass of the structure shown.

Tests used:
Assay type in all cases: in vivo
[1] = test system: sago pondweed (Stuckenia pectinata); assay: Native plant selectivity screening in aquaria, sago pondweed (Example 6); details: 50-3200 ug/L
Description: (§1) Materials and Methods: The study was conducted in an indoor aquaria facility. Elodea (Elodea canadensis) was obtained from cultures. Two apical tips approximately 10 cm long were planted into each of 48, plastic containers (16 oz. plastic cups). The containers were filled with potting soil and amended with 2 g/L Osmocote® fertilizer 19-6-12. A layer of sand was placed on top of the sediment in each container to prevent sediment re-suspension in the aquaria. Two containers of potted elodea were placed into each of 24 aquaria measuring 11.5 in×11.5 in×24 in. Additionally, sago pondweed (Stuckenia pectinata) tubers were obtained. The tubers were floated in shallow containers filled with water until new sprouts began to grow.
Once sprouted, two tubers were planted into 16 oz containers in a similar fashion as elodea. Two containers of potted sago pondweed were placed into each of the 24 aquaria, so that each aquarium had 4 potted plants (2 pots of each species). […]
At four weeks after treatment (WAT), plants were, harvested, sorted to aboveground biomass, dried in a forced air oven at 50 C for at least 48 h, and weighed for biomass determination (g/DW/aquaria). Differences between treatments were analyzed using an ANOVA, and if treatment differences were detected; means were separated using a Tukey's All-Pairwise comparison test. […]

[2] = test system: Eurasian watermilfoil; assay: Fluroxypyr potassium salt formulations vs ester on Eurasian watermilfoil under mesocosm conditions (Example 4); details: 200 ug/L, 24 h exposure, 4 WAT
Description: Eurasian watermilfoil was obtained from cultures. Two apical tips approximately 15 cm long were planted into each of 204, plastic containers (940 mL). The containers were filled with potting soil and amended with 2 g/L/soil Osmocote® fertilizer 19-6-12. Four containers of potted Eurasian watermilfoil were placed into each of 51 mesocosm tanks. Tanks were filled to a volume of 257 L and plants allowed to grow approximately 2-3 weeks prior to herbicide treatments, or until plants were at or near the water surface. Pre-treatment biomass was harvested from three tanks set up with pots for this purpose. Biomass was harvested by collecting aboveground biomass of plants from all of the pots in each of the pretreatment tanks. Plant material was placed into individually labeled paper bags, dried in a force air oven at 50 C for at least 48 h, and then weighed to assess biomass,
After pre-treatment data collection, liquid herbicides were applied as a concentrated aqueous formulation using the rates and products outlined in Table 6. […]
Four weeks after treatment (WAT), living plants were, harvested, sorted to aboveground biomass (if any), dried in a forced air oven at 50 C for at least 48 h, and weighed for biomass determination. Differences between treatments were analyzed using ANOVA with treatment means separated using a Fisher's Protected LSD test at a p≤0.05 significance level.

[3] = test system: Elodea (Elodea canadensis); assay: Native plant selectivity screening in aquaria, elodea (Example 6); details: static exposure; for Elodea biomass vs untreated reference plants: four WAT
Description: as §1
Once sprouted, two tubers were planted into 16 oz containers in a similar fashion as elodea. Two containers of potted sago pondweed were placed into each of the 24 aquaria, so that each aquarium had 4 potted plants (2 pots of each species). Each aquarium was filled to a volume of 45 L and plants allowed to grow approximately 3-4 weeks prior to herbicide treatments or until plants were at or near the water surface. Supplemental lighting was provided using Agrobrite growth lamps on a 12:12 light:dark cycle. After the plants reached the desired level of growth, a liquid formulation of fluroxypyr ester was applied as a concentrated aqueous solution at the concentrations outlined in Table 9. An untreated reference was also included for comparison purposes. All herbicide applications were made using a static exposure and replicated 3 times. […] Water was added to the aquaria as needed to maintain the desired 45 L volume of water.
At four weeks after treatment (WAT), plants were, harvested, sorted to aboveground biomass, dried in a forced air oven at 50 C for at least 48 h, and weighed for biomass determination (g/DW/aquaria). Differences between treatments were analyzed using an ANOVA, and if treatment differences were detected; means were separated using a Tukey's All-Pairwise comparison test. All analyses were conducted at a p≤0.05 significance level. Additionally, regression models were fit to elodea biomass data in order to estimate the EC50 concentration under the current experimental design.

[4] = test system: water hyacinth; assay: Foliar application of fluroxypyr herbicide on water hyacinth (Example 2); details: for Water hyacinth biomass reduction: 6 WAT
Description: Materials and Methods: Water hyacinth was obtained from field locations and cultured outdoors in a 300 gallon tank. Water in the culture tank was amended with 30 mg/L Miracle-Gro® fertilizer (14-8-16) every week to maintain plant growth. Aquashade® was added to the tank in sufficient concentration to darken the water in order to reduce algae growth
Once a sufficient density of water hyacinth had been achieved in the culture tank (plants had covered the water surface), 54-63 rosettes of similar size were harvested and divided so that six to seven rosettes (depending upon size) were placed into each of 9, 100 gallon treatment tanks. The treatment tanks were filled to a depth of 45 cm with water. Water in each treatment tank was amended and maintained in a similar fashion as the culture tank. Plants were allowed to grow approximately 2 weeks or until the water surface in each tank had been covered. Pre-treatment biomass (1 per tank) was harvested using a 0.1 m^2 PVC quadrat. The quadrat was pushed down over the plant mat in each tank and all biomass was harvested within the PVC frame. Biomass from each tank was rinsed, placed in a paper bag, and dried at 50 C to assess biomass.
After the growth period and pre-treatment harvest, plants were treated as a foliar spray using the product and rates outlined in Table 3. Treatments were applied using water as a carrier in a fine foliar spray and a total spray volume of 100 gal/acre. AB Brand Adjuvant (commercially available from Lonza, Inc.) was included in the herbicide solution at a rate of 0.25% v:v.
After treatment, each tank was rated on a scale from 0 (no control) to 100% (complete mortality) control every week for six weeks. At six weeks after treatment the 0.1 m^2 PVC quadrat was used to harvest 1 biomass sample from each tank if living biomass was present. Samples were rinsed, placed into labeled paper bags, and dried at 50 C to determine dry weight biomass. Differences between treatments were analyzed using ANOVA at a p≤0.05 significance level, and if a difference in treatments was detected means were then separated using a Fisher's Protected LSD test.

## CCCCCCC(C)OC(=O)COc1nc(F)c(Cl)c(N)c1Cl (stereo not shown) [Fluroxypyr ester, [(4-amino-3,5-dichloro-6-fluoro-2-pyridinyl)oxy]acetic acid, 1-methylheptyl ester]
[1]; four weeks of static exposure
  adverse effects on sago pondweed: did not exhibit any adverse effects
[1]; throughout the study, static exposure
  visible herbicide symptoms on sago pondweed: no visible herbicide symptoms
[2]
  Eurasian watermilfoil biomass reduction: 98%
[3]; 400 ug/L or higher
  Elodea biomass vs untreated reference plants: reduced
[3]; 50, 100, and 200 ug/L
  Elodea biomass vs untreated reference plants: similar
[3]; Elodea canadensis, 4 WAT, aquaria, read-out: EC50 for elodea (biomass, regression model)
  EC50: 0.356 mg/L (≈ 0.969 µM)
[3]; within one WAT, transient in the lower concentration treatments
  herbicide symptoms on elodea: epinastic twisting and bending
[4]; 8 oz/acre foliar spray, 1 week after treatment
  Mean percent control ratings of water hyacinth: 15%
[4]; 8 oz/acre foliar spray, 2 weeks after treatment
  Mean percent control ratings of water hyacinth: 40%
[4]; 8 oz/acre foliar spray, 3 weeks after treatment
  Mean percent control ratings of water hyacinth: 45%
[4]; 8 oz/acre foliar spray, 4 weeks after treatment
  Mean percent control ratings of water hyacinth: 65%
[4]; 8 oz/acre foliar spray, 5 weeks after treatment
  Mean percent control ratings of water hyacinth: 85%
[4]; 8 oz/acre foliar spray
  Water hyacinth biomass reduction: 90%
[4]; 8 oz/acre foliar spray, 6 weeks after treatment
  Mean percent control ratings of water hyacinth: 85%
[4]; 16 oz/acre foliar spray
  time of plant death: approximately 4 WAT
  Water hyacinth biomass reduction: 99%
[4]; 16 oz/acre foliar spray, 1 week after treatment
  Mean percent control ratings of water hyacinth: 35%
[4]; 16 oz/acre foliar spray, 2 weeks after treatment
  Mean percent control ratings of water hyacinth: 45%
[4]; 16 oz/acre foliar spray, 3 weeks after treatment
  Mean percent control ratings of water hyacinth: 65%
[4]; 16 oz/acre foliar spray, 4 weeks after treatment
  Mean percent control ratings of water hyacinth: 85%
[4]; 16 oz/acre foliar spray, 5 weeks after treatment
  Mean percent control ratings of water hyacinth: 95%
[4]; 16 oz/acre foliar spray, 6 weeks after treatment
  Mean percent control ratings of water hyacinth: 95%
